Consider nine compounds from US10829484B2, “Compounds and methods for kinase modulation, and indications therefor” (Plexxikon Inc., priority 2015, dated 2020).

This test deals with T1, BaF3-FLT3-ITD-F691L (Homo sapiens, UniProt P36888, INS600HVDFREYEYD/F691L, cells depend on it).
T1 sequence (P36888 with tags, fused parts or gaps INS600HVDFREYEYD/F691L): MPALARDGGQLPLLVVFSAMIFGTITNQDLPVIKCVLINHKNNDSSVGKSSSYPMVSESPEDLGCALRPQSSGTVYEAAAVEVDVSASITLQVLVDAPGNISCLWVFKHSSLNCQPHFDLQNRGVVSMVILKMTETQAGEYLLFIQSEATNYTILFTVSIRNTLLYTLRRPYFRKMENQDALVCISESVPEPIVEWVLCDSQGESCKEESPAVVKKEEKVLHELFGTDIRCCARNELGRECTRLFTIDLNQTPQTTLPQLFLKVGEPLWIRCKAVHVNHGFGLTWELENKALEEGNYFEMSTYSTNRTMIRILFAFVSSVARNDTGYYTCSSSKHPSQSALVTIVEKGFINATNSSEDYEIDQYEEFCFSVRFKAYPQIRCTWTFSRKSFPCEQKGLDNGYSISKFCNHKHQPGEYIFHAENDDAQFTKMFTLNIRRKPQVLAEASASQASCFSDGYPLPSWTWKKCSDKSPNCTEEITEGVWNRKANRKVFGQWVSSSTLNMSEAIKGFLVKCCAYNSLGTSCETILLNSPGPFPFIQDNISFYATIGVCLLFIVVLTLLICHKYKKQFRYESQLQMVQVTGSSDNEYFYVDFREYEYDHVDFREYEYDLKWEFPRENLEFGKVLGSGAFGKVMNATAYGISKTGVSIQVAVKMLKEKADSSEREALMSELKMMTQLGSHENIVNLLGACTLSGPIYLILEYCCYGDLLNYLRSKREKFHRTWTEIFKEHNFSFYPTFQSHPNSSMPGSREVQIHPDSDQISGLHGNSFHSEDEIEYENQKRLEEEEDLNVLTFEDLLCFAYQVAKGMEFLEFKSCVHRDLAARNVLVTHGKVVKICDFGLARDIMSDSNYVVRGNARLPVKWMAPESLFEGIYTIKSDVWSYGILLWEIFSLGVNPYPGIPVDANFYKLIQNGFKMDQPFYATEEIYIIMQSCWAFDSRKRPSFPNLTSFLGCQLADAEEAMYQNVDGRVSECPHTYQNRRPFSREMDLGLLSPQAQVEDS
The experiment in a line: CTB viability assay CS0047, BaF3-FLT3-ITD-F691L. It counts as cell-based, murine. To be noted: CellTiter Blue viability, 72 hours. The source says: Gene constructs containing the human FLT3 sequences FLT3-ITD, FLT3-ITD-F691L, FLT3-ITD-D835V and FLT3-D835V were synthesized by reverse translation of the human protein sequences, with codons optimized for mammalian expression. Sequence of the internal tandem duplication (ITD) was based on the MV4-11 ITD sequence. Synthetic DNA constructs were cloned into the pMSCV puro retroviral vector (Clontech) and transfected into the EcoPack2-293 packaging cell line (Clontech) to generate retroviruses that contain the different FLT3 constructs. Viruses were transduced into the IL-3-dependent, murine […] cell line, Ba/F3, and selected for puromycin resistance and IL-3 independence. All cell lines were cloned by limiting dilution and clones were used for all subsequent cell assays. Overexpression of the FLT3 mutants in the Ba/F3 cells results in constitutive phosphorylation of the exogenous FLT3 protein, which is required for IL-3 independence.
Cell lines were serum starved overnight in media containing 0.5% FBS, plated at 15,000 cells/well in 96-well white-walled tissue culture plates, and 3-fold serial dilutions of test compounds of Formula I were added for 72 hours at 37° C. CellTiter Blue (CTB, Promega) was added and incubated for an additional 3 hours at 37° C. Fluorescence was read at 560 nm excitation, 590 nm emission. Wells with CTB+media only were used for background subtraction, and the fluorescence of compound-treated cells was normalized to the fluorescence of DMSO-treated cells. IC50s were determined using Igor Pro software. All compounds are assayed in duplicate cell plates.

Setting [1] is: Table 4, compounds from WO 2011/022473, read-out: Cell Assay: CS0047: BaF3-FLT3-ITD-F691L CTB: IC50.
Where [2] appears, read: BaF3-FLT3-ITD-F691L cells, read-out: Cell Assay: CS0047:BaF3-FLT3-ITD-F691L CTB:IC50.
[3] abbreviates: Table 3, read-out: Cell Assay: CS0047: BaF3-FLT3-ITD-F691L CTB: IC50.

Where two headings read alike, the source gives them in different places.

Take `CNc1ccc(-c2ccc(CC(=O)Nc3cc(C(C)(C)C)on3)cc2)cn1` [reference compound]: the GI50 under setting [1] came out at 43.2 nM.
In the case of `Cc1nn(C)c(C)c1Nc1ncc(-c2ccc(CC(=O)Nc3cc(C4(C(F)(F)F)CC4)on3)c(F)c2)cn1` [P-029, 2-[2-fluoro-4-[2-[(l,3,5-trimethylpyrazol-4-yl)amino]pyrimidin-5-yl]phenyl]-N-[5-[1-(trifluoromethyl)cyclopropyl]isoxazol-3-yl]acetamide], the GI50 under setting [2] lay within 10 to 50 nM.
For `O=C(O)Cn1cc(Nc2ncc(-c3ccc(CC(=O)Nc4cc(C5(C(F)(F)F)CC5)on4)c(F)c3)cn2)cn1` [P-078, 2-[4-[[5-[3-fluoro-4-[2-oxo-2-[[5-[1-(trifluoromethyl)cyclopropyl]isoxazol-3-yl]amino]ethyl]phenyl]pyrimidin-2-yl]amino]pyrazol-1-yl]acetic acid], the GI50 under setting [2] lay in the range of 10 to 50 nM.
For the compound `CC(C)(C)c1cc(NC(=O)Nc2ccc(-c3cnc(NC4CCOCC4)nc3)cn2)no1` [reference compound], under setting [1], the GI50 came to 110 nM.
For `CCNc1ccc(-c2ccc(CC(=O)Nc3cc(C(C)(C)C)on3)cc2)cn1` [reference compound], the GI50 under setting [1] turned out to be 45.4 nM.
With `Cn1cc(Nc2ncc(-c3ccc(CC(=O)Nc4cc(C5(C(F)(F)F)CC5)on4)c(F)c3)cn2)cn1`, under setting [3], the GI50 was found to be 0.189 nM.
With `CC(C)(c1cc(NC(=O)Cc2ccc(-c3ccc(NCCN4CCOCC4)nc3)cc2)no1)C(F)(F)F` [reference compound], the GI50 under setting [1] is 73.9 nM.
On the same count and under the same terms, with `CC(C)(C)c1cc(NC(=O)Nc2ccc(-c3cnc(NC4CC4)nc3)cn2)no1` [reference compound] the figure was 77.8 nM.
Regarding `O=C(Cc1ccc(-c2cnc(Nc3ccccc3)nc2)cc1F)Nc1cc(C2(C(F)(F)F)CC2)on1`, under setting [3], the GI50 amounted to 0.728 nM.
